From US8143293B2, “Kinase inhibitors useful for the treatment of myleoprolific diseases and other proliferative diseases” (Deciphera Pharmaceuticals, LLC, priority 2007, dated 2012) come the findings set out here.

The target in assay [1] is T1, C-Met kinase (SEQ ID NO:10) (Homo sapiens, UniProt P08581).
T1 construct: 956-1390, from Invitrogen, catalogue #PV3143; His6 (N-terminal leader MSYYHHHHHH... with TEV and thrombin sites) (N); purchased Invitrogen PV3143
Briefly: C-Met kinase (SEQ ID NO:10) assay, pyruvate kinase/lactate dehydrogenase coupled. The note with it: 0.5 h preincubation, ATP 100 μM; read-out: Biochemical IC50, c-Met Enzyme Assay. As to the method:
C-Met Kinase (SEQ ID NO:10) Assay
Activity of C-Met kinase (SEQ ID NO:10) was determined by following the production of ADP from the kinase reaction through coupling with the pyruvate kinase/lactate dehydrogenase system (e.g., Schindler, et al. Science (2000) 289, 1938-1942). In this assay, the oxidation of NADH (thus the decrease at A340 nm) was continuously monitored spectrophometrically. The reaction mixture (100 μl) contained C-Met (c-Met residues; 956-1390, from Invitrogen, catalogue #PV3143, […]), polyE4Y (1 mg/ml), MgCl2 (10 mM), pyruvate kinase (4 units), lactate dehydrogenase (0.7 units), phosphoenol pyruvate (1 mM), and NADH (0.28 mM) in 90 mM Tris buffer containing 0.25 mM DTT, 0.2% octyl-glucoside and 1% DMSO, pH 7.5. Test compounds were incubated with C-Met (SEQ ID NO:10) and other reaction reagents at 22° C. for 0.5 h before ATP (100 μM) was added to start the reaction. The absorption at 340 nm was monitored continuously for 2 hours at 30° C. on Polarstar Optima plate reader (BMG). The reaction rate was calculated using the 1.0 to 2.0 h time frame. Percent inhibition was obtained by comparison of reaction rate with that of a control (i.e. with no test compound). IC50 values were calculated from a series of percent inhibition values determined at a range of inhibitor concentrations using software routines as implemented in the GraphPad Prism software package.

Assay [2] has as its target T2, T315I Abl kinase (SEQ ID NO:2) (Homo sapiens, UniProt P00519, T315I).
T2 construct: purchased deCode Genetics
T2 sequence (P00519 with tags, fused parts or gaps T315I): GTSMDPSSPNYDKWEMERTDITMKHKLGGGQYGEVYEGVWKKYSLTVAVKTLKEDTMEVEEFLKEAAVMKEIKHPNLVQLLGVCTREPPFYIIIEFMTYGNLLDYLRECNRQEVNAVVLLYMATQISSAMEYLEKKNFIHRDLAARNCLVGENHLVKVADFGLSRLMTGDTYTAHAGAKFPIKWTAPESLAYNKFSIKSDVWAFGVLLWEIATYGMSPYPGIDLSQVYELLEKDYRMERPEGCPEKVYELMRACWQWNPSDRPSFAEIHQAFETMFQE
Briefly: T315I Abl kinase (SEQ ID NO:2) assay, pyruvate kinase/lactate dehydrogenase coupled. The settings on record: 1 h preincubation, ATP 500 μM; read-out: Biochemical IC50, Abl T315I Enzyme Assay. As to the method: Abl Kinase (SEQ ID NO:2) Assay
Activity of T315I Abl kinase (SEQ ID NO:2) was determined by following the production of ADP from the kinase reaction through coupling with the pyruvate kinase/lactate dehydrogenase system (e.g., Schindler, et al. Science (2000) 289, 1938-1942). In this assay, the oxidation of NADH (thus the decrease at A340 nm) was continuously monitored spectrophometrically. The reaction mixture (100 μl) contained Abl kinase (4.4 nM, […] Abl from deCode Genetics), peptide substrate (EAIYAAPFAKKK, 0.2 mM), MgCl2 (10 mM), pyruvate kinase (4 units), lactate dehydrogenase (0.7 units), phosphoenol pyruvate (1 mM), and NADH (0.28 mM) in 90 mM Tris buffer containing 0.2% octyl-glucoside and 1% DMSO, pH 7.5. Test compounds were incubated with T315I Abl (SEQ ID NO:2) and other reaction reagents at 30° C. for 1 h before ATP (500 μM) was added to start the reaction. The absorption at 340 nm was monitored continuously for 2 hours at 30° C. on Polarstar Optima plate reader (BMG). The reaction rate was calculated using the 1.0 to 2.0 h time frame. Percent inhibition was obtained by comparison of reaction rate with that of a control (i.e. with no test compound). IC50 values were calculated from a series of percent inhibition values determined at a range of inhibitor concentrations using software routines as implemented in the GraphPad Prism software package.

T1 sequence (P08581 with tags, fused parts or gaps): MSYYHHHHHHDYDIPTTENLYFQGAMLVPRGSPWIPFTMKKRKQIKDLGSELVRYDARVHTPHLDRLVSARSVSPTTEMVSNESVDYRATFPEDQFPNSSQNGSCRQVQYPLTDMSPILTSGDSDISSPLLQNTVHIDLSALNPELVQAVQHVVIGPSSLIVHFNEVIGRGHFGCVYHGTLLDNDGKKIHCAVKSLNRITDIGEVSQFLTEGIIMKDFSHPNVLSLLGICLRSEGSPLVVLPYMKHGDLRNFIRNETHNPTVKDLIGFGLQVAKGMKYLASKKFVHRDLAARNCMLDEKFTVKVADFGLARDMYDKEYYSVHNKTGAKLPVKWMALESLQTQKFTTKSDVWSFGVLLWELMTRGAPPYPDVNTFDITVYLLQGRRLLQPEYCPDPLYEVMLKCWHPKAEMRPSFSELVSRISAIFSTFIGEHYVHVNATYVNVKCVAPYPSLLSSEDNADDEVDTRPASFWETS

For orientation: IC50 means the concentration at which inhibition is half-maximal. For `Cn1cc(-c2cc(Oc3ccc(NC(=O)Nc4cc(C(C)(C)C)no4)c(F)c3F)ccn2)cn1` [Example 25, 1-(3-tert-butylisoxazol-5-yl)-3-(2,3-difluoro-4-(2-(1-methyl-1H-pyrazol-4-yl)pyridin-4-yloxy)phenyl)urea], the IC50 in assay [1] and in assay [2] was under 100 nM in each case.

Turning to `Cn1cc(-c2cc(Oc3ccc(NC(=O)Nc4nnc(C(C)(C)C)s4)c(F)c3)ccn2)cn1` [Example 11, 1-(5-tert-butyl-1,3,4-thiadiazol-2-yl)-3-(2-fluoro-4-(2-(1-methyl-1H-pyrazol-4-yl)pyridin-4-yloxy)phenyl)urea], the IC50 in assay [1] was under 10000 nM; in assay [2], under 100 nM.

As for `Cc1c(NC(=O)Nc2ccc(Oc3ccnc(-c4cnn(C)c4)c3)cc2F)cnn1C(C)(C)C` [Example 10, 1-(1-tert-butyl-5-methyl-1H-pyrazol-4-yl)-3-(2-fluoro-4-(2-(1-methyl-1H-pyrazol-4-yl)pyridin-4-yloxy)phenyl)urea], the IC50 in assay [1] and in assay [2] was under 10000 nM each time.

For the molecule `Cn1cc(-c2cc(Oc3ccc(NC(=O)Nc4cnn(C(C)(C)C)c4)c(F)c3F)ccn2)cn1` [Example 8, 1-(1-tert-butyl-1H-pyrazol-4-yl)-3-(2,3-difluoro-4-(2-(1-methyl-1H-pyrazol-4-yl)pyridin-4-yloxy)phenyl)urea], the IC50 in assay [1] is under 1000 nM; in assay [2], under 100 nM.

As for `Cn1cc(-c2cc(Oc3ccc(NC(=O)Nc4cnn(C(C)(C)C)c4C(F)(F)F)c(F)c3)ccn2)cn1` [Example 9, 1-(1-tert-butyl-5-(trifluoromethyl)-1H-pyrazol-4-yl)-3-(2-fluoro-4-(2-(1-methyl-1H-pyrazol-4-yl)pyridin-4-yloxy)phenyl)urea], the IC50 in assay [1] was under 10000 nM; in assay [2], under 100000 nM.

For the molecule `Cn1cc(-c2cc(Oc3ccc(NC(=O)Nc4cncc(C(F)(F)F)c4)cc3)ccn2)cn1` [Example 6, 1-(4-(2-(1-methyl-1H-pyrazol-4-yl)pyridin-4-yloxy)phenyl)-3-(5-(trifluoromethyl)pyridin-3-yl)urea], the IC50 was under 10000 nM in assay [1] and under 100 nM in assay [2].

In the case of `Cn1cc(-c2cc(Oc3ccc(NC(=O)Nc4cccc(C(F)(F)F)c4)c(F)c3)ccn2)cn1` [Example 3, 1-(2-fluoro-4-(2-(1-methyl-1H-pyrazol-4-yl)pyridin-4-yloxy)phenyl)-3-(3-(trifluoromethyl)phenyl)urea], the IC50 in assay [1] was under 1000 nM; in assay [2] it was under 100 nM.

`Cn1cc(-c2cc(Oc3ccc(NC(=O)Nc4cc(C(F)(F)F)c[nH]c4=O)c(F)c3)ccn2)cn1` [Example 27, 1-(2-fluoro-4-(2-(1-methyl-1H-pyrazol-4-yl)pyridin-4-yloxy)phenyl)-3-(2-oxo-5-(trifluoromethyl)-1,2-dihydropyridin-3-yl)urea]: the IC50 is under 1000 nM in assay [1] and under 100 nM in assay [2].

As for `Cn1cc(-c2cc(Oc3ccc(NC(=O)Nc4cnc(C(C)(C)C)nc4N4CCOCC4)c(F)c3)ccn2)cn1` [Example 41, 1-(2-tert-butyl-4-morpholinopyrimidin-5-yl)-3-(2-fluoro-4-(2-(1-methyl-1H-pyrazol-4-yl)pyridin-4-yloxy)phenyl)urea], the IC50 in assay [1] and in assay [2] was under 100000 nM throughout.

In the case of `Cc1oc(C(C)(C)C)cc1NC(=O)Nc1ccc(Oc2ccnc(-c3cnn(C)c3)c2)cc1F` [Example 28, 1-(5-tert-butyl-2-methylfuran-3-yl)-3-(2-fluoro-4-(2-(1-methyl-1H-pyrazol-4-yl)pyridin-4-yloxy)phenyl)urea], the IC50 was under 10000 nM in assay [1] and under 100 nM in assay [2].

`Cn1cc(-c2cc(Oc3ccc(NC(=O)Nc4cncc(C(F)(F)F)c4)c(F)c3)ccn2)cn1` [Example 21, 1-(2-fluoro-4-(2-(1-methyl-1H-pyrazol-4-yl)pyridin-4-yloxy)phenyl)-3-(5-(trifluoromethyl)pyridin-3-yl)urea]: the IC50 in assay [1] was under 1000 nM; in assay [2], under 100 nM.

As for `CN(C)CCn1nc(C(C)(C)C)cc1NC(=O)Nc1ccc(Oc2ccnc(-c3cnn(C)c3)c2)cc1F` [Example 12, 1-(3-tert-butyl-1-(2-(dimethylamino)ethyl)-11H-pyrazol-5-yl)-3-(2-fluoro-4-(2-(1-methyl-1H-pyrazol-4-yl)pyridin-4-yloxy)phenyl)urea], the IC50 is under 10000 nM in assay [1] and under 100 nM in assay [2].

Take `Cn1cc(-c2cc(Oc3ccc(NC(=O)Nc4cnn(C5CCCC5)c4)c(F)c3)ccn2)cn1` [Example 15, 1-(1-cyclopentyl-1H-pyrazol-4-yl)-3-(2-fluoro-4-(2-(1-methyl-1H-pyrazol-4-yl)pyridin-4-yloxy)phenyl)urea]: the IC50 in assay [1] was under 10000 nM; in assay [2], under 100 nM.

Turning to `Cn1cc(-c2cc(Oc3ccc(NC(=O)Nc4cc(C(C)(C)C)nn4C)c(F)c3)ccn2)cn1` [Example 2, 1-(3-t-butyl-1-methyl-1H-pyrazol-5-yl)-3-(2-fluoro-4-(2-(1-methyl-1H-pyrazol-4-yl)pyridin-4-yloxy)phenyl)urea], the IC50 was under 1000 nM in assay [1] and under 100 nM in assay [2].

With `CC(C)c1cncc(NC(=O)Nc2ccc(Oc3ccnc(-c4cnn(C)c4)c3)cc2F)c1` [Example 22, 1-(2-fluoro-4-(2-(1-methyl-1H-pyrazol-4-yl)pyridin-4-yloxy)phenyl)-3-(5-isopropylpyridin-3-yl)urea], the IC50 was under 1000 nM in assay [1] and under 100 nM in assay [2].

For the molecule `Cn1cc(-c2cc(Oc3ccc(NC(=O)Nc4cnn(C(C)(C)C)c4)c(F)c3)ccn2)cn1` [Example 5, 1-(1-t-butyl-1H-pyrazol-4-yl)-3-(2-fluoro-4-(2-(1-methyl-1H-pyrazol-4-yl)pyridin-4-yloxy)phenyl)urea], the IC50 was under 10000 nM in assay [1] and under 100 nM in assay [2].

Turning to `Cn1cc(-c2cc(Oc3ccc(NC(=O)Nc4cc(C(F)(F)F)cnc4-c4cnn(C)c4)c(F)c3)ccn2)cn1` [Example 42, 1-(2-fluoro-4-(2-(1-methyl-1H-pyrazol-4-yl)pyridin-4-yloxy)phenyl)-3-(2-(1-methyl-1H-pyrazol-4-yl)-5-(trifluoromethyl)pyridin-3-yl)urea], the results for the IC50 in assay [1] and in assay [2] were under 1000 nM and under 100 nM, respectively.

For the molecule “1-(2-fluoro-4-(2-(1-methyl-1H-pyrazol-4-yl)pyridin-4-yloxy)phenyl)-3-(3-(1-methylcyclopentyl)isoxazol-5-yl)urea [Example 14]”, the IC50 in assay [1] is under 1000 nM; in assay [2], under 100 nM.

As for `Cn1cc(-c2cc(Oc3ccc(NC(=O)Nc4cc(C(C)(C)C)no4)c(F)c3)ccn2)cn1` [Example 1, 1-(3-t-butylisoxazol-5-yl)-3-(2-fluoro-4-(2-(1-methyl-1H-pyrazol-4-yl)pyridin-4-yloxy)phenyl)urea], the IC50 in assay [1] was under 1000 nM; in assay [2], under 100 nM.
